Experimental data published in article PMC10689823, “Discovery of a Drug-like, Natural Product-Inspired DCAF11 Ligand Chemotype” (Nature Communications, 2023).

Target: BRD4S-TagBFP reporter (Homo sapiens, UniProt O60885)
Assay: FACS-based CRISPR/Cas9 BRD4 protein stability screen
Details: Mageck_Gene level

- High_lfc (Gene DCAF1): 0.07
- High_logP (Gene DCAF1): 0.4
- Low_lfc (Gene DCAF1): 0.08
- Low_logP (Gene DCAF1): 0.47
- High_lfc (Gene DCAF4): 0.04
- High_logP (Gene DCAF4): 0.26
- Low_lfc (Gene DCAF4): 0.5
- Low_logP (Gene DCAF4): 1.14
- High_lfc (Gene DCAF5): -0.31
- High_logP (Gene DCAF5): 0.03
- Low_lfc (Gene DCAF5): -0.2
- Low_logP (Gene DCAF5): 0.09
- High_lfc (Gene DCAF6): -0.27
- High_logP (Gene DCAF6): 0.06
- Low_lfc (Gene DCAF6): 0.14
- Low_logP (Gene DCAF6): 0.62
- High_lfc (Gene DCAF7): -0.06
- High_logP (Gene DCAF7): 0.19
- Low_lfc (Gene DCAF7): 0.05
- Low_logP (Gene DCAF7): 0.29
- High_lfc (Gene DCAF8): -0.08
- High_logP (Gene DCAF8): 0.19
- Low_lfc (Gene DCAF8): 0.22
- Low_logP (Gene DCAF8): 0.46
- High_lfc (Gene DCAF12): -0.19
- High_logP (Gene DCAF12): 0
- Low_lfc (Gene DCAF12): -0.38
- Low_logP (Gene DCAF12): 0
- High_lfc (Gene DCAF13): -0.32
- High_logP (Gene DCAF13): 0.14
- Low_lfc (Gene DCAF13): -0.17
- Low_logP (Gene DCAF13): 0.23
- High_lfc (Gene DCAF15): 0.02
- High_logP (Gene DCAF15): 0.29
- Low_lfc (Gene DCAF15): 0.34
- High_lfc (Gene DCAF16): 0.41
- High_logP (Gene DCAF16): 1.29
- Low_lfc (Gene DCAF16): 0.15
- Low_logP (Gene DCAF16): 0.08
- High_lfc (Gene DCAF17): -0.4
- High_logP (Gene DCAF17): 0.08
- Low_lfc (Gene DCAF17): -0.25
- Low_logP (Gene DCAF17): 0.08
- High_lfc (Gene DCUN1D1): -0.16
- High_logP (Gene DCUN1D1): 0.04
- Low_lfc (Gene DCUN1D1): -0.14
- Low_logP (Gene DCUN1D1): 0.41
- High_lfc (Gene DCUN1D2): -0.24
- High_logP (Gene DCUN1D2): 0.01
- Low_lfc (Gene DCUN1D2): 0.34
- Low_logP (Gene DCUN1D2): 0.85
- High_lfc (Gene DCUN1D3): 0.11
- High_logP (Gene DCUN1D3): 0.22
- Low_lfc (Gene DCUN1D3): 0.24
- Low_logP (Gene DCUN1D3): 1.2
- High_lfc (Gene DCUN1D4): -0.01
- High_logP (Gene DCUN1D4): 0.07
- Low_lfc (Gene DCUN1D4): 0.03
- Low_logP (Gene DCUN1D4): 0.28
- High_lfc (Gene DCUN1D5): 0.22
- High_logP (Gene DCUN1D5): 0.38
- Low_lfc (Gene DCUN1D5): -0.23
- Low_logP (Gene DCUN1D5): 0.04
- High_lfc (Gene DDA1): 0.21
- High_logP (Gene DDA1): 0.55
- Low_lfc (Gene DDA1): -0.07
- Low_logP (Gene DDA1): 0.09
- High_lfc (Gene DDB1): 1.6
- Low_lfc (Gene DDB1): -0.07
- Low_logP (Gene DDB1): 0.14
- High_lfc (Gene DDB2): -0.17
- High_logP (Gene DDB2): 0.1
- Low_lfc (Gene DDB2): 0.02
- Low_logP (Gene DDB2): 0.41
- High_lfc (Gene DET1): 0.13
- High_logP (Gene DET1): 0.2
- Low_lfc (Gene DET1): 0.1
- Low_logP (Gene DET1): 0.55
- High_lfc (Gene DHX15): 0.88
- High_logP (Gene DHX15): 3.08
- Low_lfc (Gene DHX15): 0.33
- Low_logP (Gene DHX15): 0.15
- High_lfc (Gene DTL): -0.32
- High_logP (Gene DTL): 0.12
- Low_lfc (Gene DTL): 0.6
- Low_logP (Gene DTL): 1.9
- High_lfc (Gene ECT2L): 0.08
- High_logP (Gene ECT2L): 0.35
- Low_lfc (Gene ECT2L): 0.18
- Low_logP (Gene ECT2L): 0.73
- High_lfc (Gene EED): -0.14
- High_logP (Gene EED): 0.1
- Low_lfc (Gene EED): -0.33
- Low_logP (Gene EED): 0.06
- High_lfc (Gene EIF4A1): -0.23
- High_logP (Gene EIF4A1): 0.17
- Low_lfc (Gene EIF4A1): 0.22
- Low_logP (Gene EIF4A1): 0.27
- High_lfc (Gene EIF4A3): -0.5
- High_logP (Gene EIF4A3): 0.12
- Low_lfc (Gene EIF4A3): 0.83
- Low_logP (Gene EIF4A3): 3.36
- High_lfc (Gene ELOA2): 0.27
- High_logP (Gene ELOA2): 1.5
- Low_lfc (Gene ELOA2): -0.21
- Low_logP (Gene ELOA2): 0.02
- High_lfc (Gene ELOA3): -0.14
- High_logP (Gene ELOA3): 0.04
- Low_lfc (Gene ELOA3): -0.68
- Low_logP (Gene ELOA3): 0
- High_lfc (Gene ELOA3D): -0.17
- High_logP (Gene ELOA3D): 0.16
- Low_lfc (Gene ELOA3D): -0.44
- Low_logP (Gene ELOA3D): 0.05
- High_lfc (Gene ELOA): 0.14
- High_logP (Gene ELOA): 0.38
- Low_lfc (Gene ELOA): 0.01
- Low_logP (Gene ELOA): 0.08
- High_lfc (Gene ELOB): 0.32
- High_logP (Gene ELOB): 1.07
- Low_lfc (Gene ELOB): 0.26
- Low_logP (Gene ELOB): 0.54
- High_lfc (Gene ELOC): 0.2
- High_logP (Gene ELOC): 0.44
- Low_lfc (Gene ELOC): 0.2
- Low_logP (Gene ELOC): 0.9
- High_lfc (Gene ENC1): -0.31
- High_logP (Gene ENC1): 0
- Low_lfc (Gene ENC1): -0.06
- Low_logP (Gene ENC1): 0.22
- High_lfc (Gene EPHA4): -0.08
- High_logP (Gene EPHA4): 0.25
- Low_lfc (Gene EPHA4): -0.27
- Low_logP (Gene EPHA4): 0.02
- High_lfc (Gene ERCC8): -0.71
- High_logP (Gene ERCC8): 0.04
- Low_lfc (Gene ERCC8): -0.42
- Low_logP (Gene ERCC8): 0.02
- High_lfc (Gene ESCO1): 0.09
- High_logP (Gene ESCO1): 0.53
- Low_lfc (Gene ESCO1): -0.29
- Low_logP (Gene ESCO1): 0.05
- High_lfc (Gene FAM9A): -0.13
- High_logP (Gene FAM9A): 0.02
- Low_lfc (Gene FAM9A): -0.08
- Low_logP (Gene FAM9A): 0.64
- High_lfc (Gene FBXL2): -0.04
- High_logP (Gene FBXL2): 0.25
- Low_lfc (Gene FBXL2): -0.25
- Low_logP (Gene FBXL2): 0.03
- High_lfc (Gene FBXL3): -0.55
- High_logP (Gene FBXL3): 0
- Low_lfc (Gene FBXL3): 0
- Low_logP (Gene FBXL3): 0.15
- High_lfc (Gene FBXL4): -0.13
- High_logP (Gene FBXL4): 0.04
- Low_lfc (Gene FBXL4): 0.11
- Low_logP (Gene FBXL4): 0.32
- High_lfc (Gene FBXL5): -0.03
- High_logP (Gene FBXL5): 0.1
- Low_lfc (Gene FBXL5): -0.22
- Low_logP (Gene FBXL5): 0.05
- High_lfc (Gene FBXL6): -0.15
- High_logP (Gene FBXL6): 0.09
- Low_lfc (Gene FBXL6): -0.18
- Low_logP (Gene FBXL6): 0.14
- High_lfc (Gene FBXL7): -0.1
- High_logP (Gene FBXL7): 0.12
- Low_lfc (Gene FBXL7): 0.04
- Low_logP (Gene FBXL7): 0.13
- High_lfc (Gene FBXL8): -0.02
- High_logP (Gene FBXL8): 0.08
- Low_lfc (Gene FBXL8): -0.1
- Low_logP (Gene FBXL8): 0.23
- High_lfc (Gene FBXL12): -0.02
- High_logP (Gene FBXL12): 0.03
- Low_lfc (Gene FBXL12): 0.09
- Low_logP (Gene FBXL12): 0.2
- High_lfc (Gene FBXL13): 0.02
- High_logP (Gene FBXL13): 0.26
- Low_lfc (Gene FBXL13): 0.01
- Low_logP (Gene FBXL13): 0.21
- High_lfc (Gene FBXL14): -0.22
- High_logP (Gene FBXL14): 0.01
- Low_lfc (Gene FBXL14): -0.05
- Low_logP (Gene FBXL14): 0.13
- High_lfc (Gene FBXL15): 0.13
- High_logP (Gene FBXL15): 0.24
- Low_lfc (Gene FBXL15): 0.16
- Low_logP (Gene FBXL15): 0.21
- High_lfc (Gene FBXL16): 0.23
- High_logP (Gene FBXL16): 0.22
- Low_lfc (Gene FBXL16): 0.16
- Low_logP (Gene FBXL16): 0.37
- High_lfc (Gene FBXL17): -0.14
- High_logP (Gene FBXL17): 0.03
- Low_lfc (Gene FBXL17): -0.04
- Low_logP (Gene FBXL17): 0.45
- High_lfc (Gene FBXL18): 0.05
- High_logP (Gene FBXL18): 0.34
Structure (SMILES): Cc1sc2c(c1C)C(c1ccc(Cl)cc1)=NC(CC(=O)NCCOCCOCCOCCOc1c(Br)cc(C=C3C(=O)Nc4ccc(Br)cc43)cc1Br)c1nnc(C)n1-2 (centres unmarked) [Compound 10]
